Source: patent US8168651B2, “Protein kinase modulators” (Cylene Pharmaceuticals, Inc., priority 2008, dated 2012)
Like-named read-outs stand apart in the source and are kept apart here.

Key:
recombinant human PIM1 = recombinant human PIM1 (Homo sapiens (Human), UniProt P11309); experiment: PIM-1 kinase activity in cell-free in vitro assay; type: biochemical; settings: cell-free assay; for inhibition at 0.5 µM: 500 nM compound, read-out: PIM-1: % inh 500 nM
Jurkat = experiment: Cell proliferation modulatory activity, Jurkat; type: cell-based; settings: Homo sapiens
[1] = tested on: HCT-116 human colorectal carcinoma cells; experiment: Cell-proliferation assay using Alamar Blue dye; type: cell-based; settings: Homo sapiens;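 further: cells exposed to compound for about 4 days, then Alamar Blue added and dye fluorescence read after about 4 h, compared with medium-only control wells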
[2] = HCT-116, read-out: HCT-116 (uM), cell proliferation modulatory activity, HCT-116, second HCT-116 column (c8)
[3] = HCT-116, HCT-116, second HCT-116 column (c8), read-out: HCT-116 (uM), cell proliferation modulatory activity

Sequence of recombinant human PIM1 (P11309 whole entry): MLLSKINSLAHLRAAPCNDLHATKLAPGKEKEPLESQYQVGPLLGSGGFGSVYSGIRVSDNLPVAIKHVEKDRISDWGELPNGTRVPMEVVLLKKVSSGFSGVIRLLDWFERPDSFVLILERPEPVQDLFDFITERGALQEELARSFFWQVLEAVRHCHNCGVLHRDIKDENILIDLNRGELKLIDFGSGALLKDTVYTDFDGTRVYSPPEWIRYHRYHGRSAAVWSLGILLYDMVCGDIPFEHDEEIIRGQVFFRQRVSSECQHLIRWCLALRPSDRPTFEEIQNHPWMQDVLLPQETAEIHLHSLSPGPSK

SMILES	inhibition at 0.5 µM (recombinant human PIM1) [%]	IC50 (Jurkat) [µM]	IC50 [1, 2] [µM]	IC50 (recombinant human PIM1) [nM]	IC50 [1, 3] [µM]
O=C(O)c1ccc2c(c1)nc(Nc1ccccc1)c1nc(NCCCN3CCOCC3)ncc12	33.7	2.18	> 10		
C#Cc1cccc(Nc2nc3cc(C(=O)O)ccc3c3cnc(NC4CC4)nc23)c1	-38.6	1.27	7.3		
C#Cc1cccc(Nc2nc3cc(C(=O)O)ccc3c3cnc(NC)nc23)c1	68.2	1.29	4.69	661	
CNc1ncc2c(n1)c(Nc1cccc(Cl)c1)nc1cc(C(=O)O)ccc12	51.5	1.09	> 10		
CNc1ncc2c(n1)c(NC1CC1)nc1cc(C(=O)O)ccc12	52.4	9.68	> 10	535	
Nc1ncc2c(n1)c(Nc1cccc(C(F)(F)F)c1)nc1cc(C(=O)O)ccc12	74.3	2.66	> 10	443	
O=C(O)c1ccc2c(c1)nc(NC1CC1)c1nc(NCc3ccncc3)ncc12	8.18	35.6	> 10		
O=C(O)c1ccc2c(c1)nc(NC1CC1)c1nc(NCc3ccccn3)ncc12	11.2	23.3	> 10		
O=C(O)c1ccc2c(c1)nc(NC1CC1)c1nc(NCCc3ccccc3)ncc12	-11.1	0.826	> 10		
CC(C)Nc1ncc2c(n1)c(NC1CC1)nc1cc(C(=O)O)ccc12	73.3	2.14	> 10	> 1100	
O=C(O)c1ccc2c(c1)nc(NC1CC1)c1nc(Nc3cccc(C(F)(F)F)c3)ncc12	44.2	2.39	> 10		
COC(=O)c1ccc2c(c1)nc(Nc1ccccc1C)c1nc(S(C)(=O)=O)ncc12	25.3	> 30			> 10
Cc1c(-c2cc(Nc3nc4cc(C(=O)O)ccc4c4cnccc34)n(C)n2)sc2ccc(Cl)cc12	4.53	19.6			> 10
Cc1ccc(Nc2nc3cc(C(=O)O)ccc3c3cnccc23)nc1	48.3	1.26		> 1100	> 10
O=C(O)c1ccc2c(c1)nc(N1CCC(c3ccccc3)C1)c1ccncc12 (stereo not drawn)	1.04	> 30			> 10
O=C(O)c1ccc2c(c1)nc(Nc1cccc(Oc3ccccc3)c1)c1ccncc12	44.1	> 30			> 10
O=C(O)c1ccc2c(c1)nc(Nc1ccc(OC(F)(F)F)cc1)c1ccncc12	68.3	4.7		668	> 10
COc1cc(Nc2nc3cc(C(=O)O)ccc3c3cnccc23)ccc1C	75.8	10.7		744	> 10
Cc1ccc(C(N)=O)cc1Nc1nc2cc(C(=O)O)ccc2c2cnccc12	9.95	> 30			> 10
O=C(O)c1ccc2c(c1)nc(Nc1cccc(OC(F)(F)F)c1)c1ccncc12	87.3	7.44		711	> 10
COc1ccccc1Nc1nc2cc(C(=O)O)ccc2c2cnccc12	75.8	10.4		698	> 10
COC(=O)c1ccc2c(c1)nc(NC1CC1)c1nc(SCc3ccccc3Cl)ncc12 [drawing 1611]	-0.924	4.67			> 10
O=C(O)c1ccc2c(c1)nc(NC1CC1)c1nc(SCc3ccccc3Cl)ncc12 [drawing 1614]	7.49	29.3			> 10
O=C(O)c1ccc2c(c1)nc(NC1CC1)c1nc(NC3CC3)ncc12 [drawing 1616]	27.1	3.45	> 10		
